Here are results for eleven compounds from ChEMBL document CHEMBL1201862, “PubChem BioAssay data set” (2004).

Each structure is given as a SMILES string. Where “and” joins values, the source holds several entries; their conditions need not be identical. Equal entries are not always repeated.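 The compound was tested at five concentrations on cells cultured in 96-well plates, with a 48-hour exposure period. GI50 marks 50% less growth.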 Calls of active or inactive are those of the source. Cut-off read from the data, not from the text of the source: active = GI50 up to about 1.1 µM and inactive = higher.

Test systems include RPMI-8226; HCT-15; IGROV-1; SNB-75; A498; CAKI-1; SW-620; UACC-257; SK-OV-3; MOLT-4; SF-295; SF-539; SK-MEL-2; MDA-MB-231; HCT-116; NCI-H522; HCC 2998; NCI-H460; U-251; PC-3.
Experiment in all cases: growth of human tumour cells (NCI), 48 h

As for `Cc1ccc(NC=O)c(-c2c(N)[nH]c(=S)[nH]c2=O)c1`, the GI50 with RPMI-8226 is > 100 µM (inactive); with HCT-15, > 100 µM; in the experiment on IGROV-1, > 100 µM (inactive); in the experiment on SNB-75 it was > 100 µM (inactive); with A498 it was > 100 µM (inactive); with CAKI-1, > 100 µM (inactive). The GI50 in the experiment on SW-620 was > 100 µM (inactive); in the experiment with UACC-257, > 100 µM (inactive); with SK-OV-3, 12.3 µM (inactive); in the experiment on MOLT-4 it was > 100 µM (inactive); in the experiment with SF-295, > 100 µM (inactive); with SF-539, > 100 µM (inactive). In addition, the GI50 in the experiment on SK-MEL-2, with MDA-MB-231, with HCT-116 and in the experiment on NCI-H522 was > 100 µM (inactive) in each case.

Regarding `COc1ccc(C2SCC(=O)N2NC(=O)c2ccc(NC(C)=O)cc2)c(OC)c1` (centres undefined), the GI50 with RPMI-8226 is > 100 µM (inactive); in the experiment on HCT-15, > 100 µM; in the experiment on IGROV-1, > 100 µM (inactive); with HCC 2998, > 100 µM (inactive); in the experiment with SNB-75, > 100 µM (inactive); with NCI-H460 it was > 100 µM (inactive). The GI50 in the experiment with A498 is > 100 µM (inactive); with SW-620 it was > 100 µM (inactive); with U-251, 33.6 µM (inactive); in the experiment on UACC-257, > 100 µM (inactive); in the experiment with SK-OV-3, > 100 µM (inactive); in the experiment on MOLT-4, > 100 µM (inactive). For the same compound, the GI50 with SF-295, with SF-539, in the experiment with SK-MEL-2, in the experiment on MDA-MB-231 and in the experiment with HCT-116 was > 100 µM (inactive) each time.

As for `COc1cc(C[C@@]2(C)[C@@H]3CCC[C@H](CO)[C@@]3(C)CC[C@@H]2C)c(Cl)c(OC)c1`, the GI50 in the experiment with RPMI-8226 is 20.2 µM (inactive); in the experiment with HCT-15, 16.7 µM; in the experiment on IGROV-1, 14.7 µM (inactive); in the experiment with HCC 2998 it was 16.1 µM (inactive); in the experiment on SNB-75, 18 µM (inactive); with NCI-H460, 16.8 µM (inactive). Besides, the GI50 is 16.2 µM (inactive) with CAKI-1; 14.2 µM (inactive) with PC-3; 29.2 µM (inactive) in the experiment with SW-620; 15.5 µM (inactive) with U-251; 18.7 µM (inactive) in the experiment with UACC-257; 17.5 µM (inactive) in the experiment on SK-OV-3. The GI50 in the experiment on MOLT-4 is 12.1 µM (inactive); in the experiment on SF-295, 16.3 µM (inactive); with SF-539, 14.7 µM (inactive); with SK-MEL-2 it was 16.8 µM (inactive); in the experiment with MDA-MB-231, 16.4 µM (inactive); in the experiment with HCT-116 it was 12.2 µM (inactive). For the same compound, the GI50 with NCI-H522 is 14.7 µM (inactive).

Take `CCN(CC)C(=S)SS(=O)(=O)c1cccc(N)c1`: the GI50 in the experiment on RPMI-8226 is > 100 µM (inactive); in the experiment on HCT-15, > 100 µM; in the experiment on HCC 2998, > 100 µM (inactive); with NCI-H460 it was > 100 µM (inactive); in the experiment on A498, > 100 µM (inactive); in the experiment on CAKI-1, > 100 µM (inactive). Moreover, the GI50 in the experiment with SW-620, in the experiment on U-251, in the experiment with UACC-257, in the experiment on SK-OV-3, with MOLT-4 and in the experiment on SF-295 was > 100 µM (inactive) throughout. Further, the GI50 with SF-539, in the experiment on SK-MEL-2, in the experiment on MDA-MB-231, with HCT-116 and in the experiment with NCI-H522 was > 100 µM (inactive) each time.

Regarding `Cc1ccc2nc(SCC(=O)N/N=C3\C(=O)Nc4ccccc43)n(-c3ccccc3)c(=O)c2c1`, the GI50 with RPMI-8226 is 17.6 µM (inactive); with HCT-15, 17.2 µM; in the experiment with HCC 2998, 14.8 µM (inactive); in the experiment with NCI-H460, 15.6 µM (inactive); in the experiment on A498 it was 14.9 µM (inactive); with CAKI-1 it was 18.6 µM (inactive). The GI50 in the experiment on PC-3 was 17.1 µM (inactive); in the experiment on SW-620, 23.6 µM (inactive); in the experiment on U-251 it was 12.3 µM (inactive); in the experiment on UACC-257, 24 µM (inactive); in the experiment on SK-OV-3, 13.8 µM (inactive); in the experiment with MOLT-4, 17.6 µM (inactive). In addition, the GI50 with SF-295 was 15.8 µM (inactive); in the experiment with SF-539, 5.7 µM (inactive); with SK-MEL-2 it was 1.69 µM (inactive); in the experiment with MDA-MB-231, 10.9 µM (inactive); in the experiment with HCT-116, 15.1 µM (inactive).

Regarding `Oc1ccc(-c2nc3ccc(Br)cc3s2)cc1`, the GI50 in the experiment with RPMI-8226 is 15.1 µM (inactive); with HCT-15 it was 20.3 µM; with IGROV-1 it was 12.9 µM (inactive); in the experiment on NCI-H460, 21.7 µM (inactive); in the experiment with CAKI-1, 15.7 µM (inactive); with PC-3, 19.2 µM (inactive). In addition, the GI50 was 32.2 µM (inactive) in the experiment with SW-620; 20.4 µM (inactive) in the experiment with U-251; 21.4 µM (inactive) in the experiment on UACC-257; 19.5 µM (inactive) in the experiment with SK-OV-3; 33.3 µM (inactive) in the experiment on MOLT-4; 17.6 µM (inactive) with SF-295. For the same compound, the GI50 is 14.8 µM (inactive) in the experiment on SF-539; 17.9 µM (inactive) in the experiment with SK-MEL-2; 16.3 µM (inactive) in the experiment on MDA-MB-231; 20 µM (inactive) with HCT-116; 10.7 µM (inactive) in the experiment on NCI-H522.

Turning to `CC1OC2OC3C(OCC(O)C3O)OC(=O)[C@]34CCC(C)(C)CC3C3=CCC5[C@@]6(C)C[C@H](O)[C@H](OC7OC(CO)C(O)C(O)C7OC7OCC(OC(=O)CC(C)(O)CC(=O)OC1C(O)C2O)C(O)C7O)[C@@](C)(CO)C6CC[C@@]5(C)[C@]3(C)CC4` (some centres undefined), the GI50 in the experiment on RPMI-8226 is 4.17 µM (inactive); with HCT-15, 7.98 µM; in the experiment on IGROV-1 it was 5.71 µM (inactive); with HCC 2998, 2.43 µM (inactive); in the experiment on SNB-75, 5.64 µM (inactive); with NCI-H460 it was 11.6 µM (inactive). Besides, the GI50 with PC-3 was 2.17 µM (inactive); in the experiment with SW-620 it was 8.85 µM (inactive); with U-251 it was 3.48 µM (inactive); with UACC-257, 2.33 µM (inactive); with SK-OV-3, 3.19 µM (inactive); in the experiment with MOLT-4, 8.89 µM (inactive). Further, the GI50 in the experiment with SF-295 is 3.42 µM (inactive); in the experiment with SF-539 it was 12.7 µM (inactive); in the experiment with SK-MEL-2, 7.91 µM (inactive); in the experiment with MDA-MB-231, 9.23 µM (inactive); in the experiment on HCT-116, 5.75 µM (inactive); in the experiment on NCI-H522, 3.67 µM (inactive).

In the case of `COc1cc([N+](=O)[O-])c(S(=O)(=O)O)cc1-n1nc(-c2ccccc2)n[n+]1-c1cc(S(=O)(=O)[O-])c([N+](=O)[O-])cc1OC`, the GI50 in the experiment on RPMI-8226 was > 100 µM (inactive); in the experiment with HCT-15, > 100 µM; in the experiment on IGROV-1 it was > 100 µM (inactive); in the experiment with HCC 2998, > 100 µM (inactive); in the experiment on SNB-75 it was > 100 µM (inactive); in the experiment on NCI-H460 it was > 100 µM (inactive). Further, the GI50 with CAKI-1, in the experiment with PC-3, in the experiment on SW-620, in the experiment on U-251, with UACC-257 and in the experiment with SK-OV-3 was > 100 µM (inactive) each time. Further, the GI50 with MOLT-4, with SF-295, in the experiment on SF-539, in the experiment on SK-MEL-2, in the experiment on MDA-MB-231 and in the experiment on HCT-116 was > 100 µM (inactive) in each case. The GI50 in the experiment on NCI-H522 was > 100 µM (inactive).

As for `C#C/C=C\CCCC/C=C\C#CC#CCCCC#CC#C[C@H](COS(=O)(=O)O)OS(=O)(=O)O`, the GI50 was > 100 µM (inactive) in the experiment on RPMI-8226; > 100 µM in the experiment on HCT-15; > 100 µM (inactive) in the experiment on IGROV-1; > 100 µM (inactive) in the experiment with HCC 2998; 33 µM (inactive) with SNB-75; > 100 µM (inactive) in the experiment on NCI-H460. Further, the GI50 with CAKI-1, with PC-3, with SW-620, with U-251, with UACC-257 and with MOLT-4 was > 100 µM (inactive) throughout. Moreover, the GI50 in the experiment with SF-295, in the experiment with SF-539, in the experiment on SK-MEL-2, with MDA-MB-231, in the experiment on HCT-116 and with NCI-H522 was > 100 µM (inactive) in each case.

`CC(=O)c1c(-c2cccc3ccccc23)c(C#N)c(=S)n(C2OC(CO)C(O)C(O)C2O)c1C` (centres undefined): the GI50 in the experiment on RPMI-8226 was 53.2 µM (inactive); in the experiment with HCT-15 it was > 100 µM; with IGROV-1 it was > 100 µM (inactive); with HCC 2998, > 100 µM (inactive); with SNB-75, > 100 µM (inactive); in the experiment with NCI-H460, > 100 µM (inactive). For the same compound, the GI50 was > 100 µM (inactive) with A498; 53.1 µM (inactive) with CAKI-1; > 100 µM (inactive) with PC-3; > 100 µM (inactive) in the experiment on SW-620; 69 µM (inactive) with UACC-257; > 100 µM (inactive) in the experiment on SK-OV-3. For the same compound, the GI50 is 38.9 µM (inactive) and 49.3 µM (inactive) in the experiment with MOLT-4; > 100 µM (inactive) in the experiment on SF-295; > 100 µM (inactive) with SK-MEL-2; > 100 µM (inactive) in the experiment on HCT-116; > 100 µM (inactive) in the experiment on NCI-H522.

Regarding `ClCCCN(CCCCl)c1ccc(/C=N/c2cccc(Cl)c2)cc1`, the GI50 in the experiment with RPMI-8226 was 17.2 µM (inactive); with HCT-15 it was 18.1 µM; in the experiment on IGROV-1, 29.8 µM (inactive); with HCC 2998 it was 32.1 µM (inactive); with SNB-75, 8.93 µM (inactive); in the experiment on NCI-H460, 9.55 µM (inactive). Further, the GI50 in the experiment with CAKI-1 is 0.652 µM (active); in the experiment with PC-3, 10.7 µM (inactive); with SW-620, 12.9 µM (inactive); in the experiment on U-251 it was 26.9 µM (inactive); with UACC-257, 29.4 µM (inactive); in the experiment on SK-OV-3, 49.5 µM (inactive). The GI50 in the experiment with MOLT-4 is 14.4 µM (inactive); with SF-295, 15 µM (inactive); in the experiment on SF-539 it was 53.2 µM (inactive); in the experiment with SK-MEL-2 it was 26.7 µM (inactive); with MDA-MB-231, 12.2 µM (inactive); with HCT-116, 32.5 µM (inactive). The GI50 with NCI-H522 was 30.5 µM (inactive).
